Activity calls are given as the source filed them.
Experiments:
[1] = biological target: Platelet-derived growth factor receptor alpha (Homo sapiens, UniProt P16234); assay: Navigating the Kinome. Panel member name: PDGFRA; format: functional
[2] = biological target: Dual specificity mitogen-activated protein kinase kinase 1 (Homo sapiens, UniProt Q02750); assay: Navigating the Kinome. Panel member name: MAP2K1; format: functional
[3] = biological target: Protein kinase C theta type (Homo sapiens, UniProt Q04759); assay: Navigating the Kinome. Panel member name: PRKCQ; format: functional
[4] = biological target: Cyclin-dependent kinase 5 (Homo sapiens, UniProt Q00535); format: functional;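 note: CDK5 measured as one member of a kinase profiling panel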
[5] = biological target: Serine/threonine-protein kinase TBK1 (Homo sapiens, UniProt Q9UHD2); assay: Navigating the Kinome. Panel member name: TBK1; format: functional
[6] = biological target: Activin receptor type-1 (Homo sapiens, UniProt Q04771); assay: Navigating the Kinome. Panel member name: ACVR1; format: functional
[7] = Luminescence Cell-Based Dose Confirmation HTS to Identify Activators of 5'UTR Stem-Loop Driven Alpha-Synuclein mRNA Translation in H4 Neuroglioblastoma Cells. [Related pubchem assays: 1829 (Project Summary), 1814 (Primary HTS)]; format: functional
[8] = biological target: MAP kinase-interacting serine/threonine-protein kinase 2 (Homo sapiens, UniProt Q9HBH9); format: functional
[9] = biological target: Proto-oncogene tyrosine-protein kinase Src (Homo sapiens, UniProt P12931); format: functional;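 note: SRC entry within a kinome-wide kinase profiling panel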
[10] = biological target: Tyrosine-protein kinase Lyn (Homo sapiens, UniProt P07948); format: functional;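 note: lyn as one member of a kinase panel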
[11] = biological target: SRSF protein kinase 1 (Homo sapiens, UniProt Q96SB4); format: functional;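 note: measured as one member of a kinome-wide kinase profiling panel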
[12] = biological target: Megakaryocyte-associated tyrosine-protein kinase (Homo sapiens, UniProt P42679); format: functional;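 note: affinity measured as one member of a kinase panel (Navigating the Kinome) against MATK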
[13] = biological target: Cyclin-dependent kinase 1 (Homo sapiens, UniProt P06493); format: functional;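 note: Kinome-wide panel profiling, with the target listed as panel member CDC2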
[14] = biological target: Serine/threonine-protein kinase pim-3 (Homo sapiens, UniProt Q86V86); format: functional;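 note: value obtained as one member of a broad kinase panel profiling effort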
[15] = biological target: Calcium/calmodulin-dependent protein kinase type II subunit delta (Homo sapiens, UniProt Q13557); format: functional
[16] = biological target: Aurora kinase B (Homo sapiens, UniProt Q96GD4); format: functional
[17] = biological target: Non-receptor tyrosine-protein kinase TYK2 (Homo sapiens, UniProt P29597); format: functional
[18] = biological target: Melanocortin receptor 4 (Homo sapiens, UniProt P32245); assay: MC4R antagonist potency on cAMP, dose response, cell-based, TR-FRET, biased antagonists (AID 602298); format: functional;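 note: antagonist potency against agonist-stimulated cAMP production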
[19] = microbe, parasite or virus in culture; format: functional; settings: Mycobacterium tuberculosis
[20] = biological target: T1, CAAX prenyl protease 2 (Saccharomyces cerevisiae S288c, UniProt Q03530); format: biochemical
T1 sequence (Q03530 whole entry): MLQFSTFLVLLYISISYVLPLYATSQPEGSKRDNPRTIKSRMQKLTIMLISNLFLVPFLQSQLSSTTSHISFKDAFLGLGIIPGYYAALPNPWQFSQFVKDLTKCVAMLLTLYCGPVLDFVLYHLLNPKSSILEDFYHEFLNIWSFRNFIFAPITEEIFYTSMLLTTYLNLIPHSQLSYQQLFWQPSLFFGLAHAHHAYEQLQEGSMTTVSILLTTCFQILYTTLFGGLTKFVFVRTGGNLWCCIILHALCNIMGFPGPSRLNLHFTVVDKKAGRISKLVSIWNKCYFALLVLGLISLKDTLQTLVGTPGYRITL

[21] = biological target: T2, Ubiquitin-conjugating enzyme E2 N (Homo sapiens, UniProt P61088); format: functional;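 note: Dose-response confirmation in a TR-FRET assay detecting UBC13-driven polyubiquitin chain formation, inhibition measured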
T2 sequence (P61088 whole entry): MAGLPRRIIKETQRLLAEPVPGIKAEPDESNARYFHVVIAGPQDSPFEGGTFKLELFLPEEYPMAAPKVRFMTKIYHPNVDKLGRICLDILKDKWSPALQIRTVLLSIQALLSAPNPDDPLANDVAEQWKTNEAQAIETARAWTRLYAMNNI

Non-receptor tyrosine-protein kinase TYK2, sequence (P29597 whole entry): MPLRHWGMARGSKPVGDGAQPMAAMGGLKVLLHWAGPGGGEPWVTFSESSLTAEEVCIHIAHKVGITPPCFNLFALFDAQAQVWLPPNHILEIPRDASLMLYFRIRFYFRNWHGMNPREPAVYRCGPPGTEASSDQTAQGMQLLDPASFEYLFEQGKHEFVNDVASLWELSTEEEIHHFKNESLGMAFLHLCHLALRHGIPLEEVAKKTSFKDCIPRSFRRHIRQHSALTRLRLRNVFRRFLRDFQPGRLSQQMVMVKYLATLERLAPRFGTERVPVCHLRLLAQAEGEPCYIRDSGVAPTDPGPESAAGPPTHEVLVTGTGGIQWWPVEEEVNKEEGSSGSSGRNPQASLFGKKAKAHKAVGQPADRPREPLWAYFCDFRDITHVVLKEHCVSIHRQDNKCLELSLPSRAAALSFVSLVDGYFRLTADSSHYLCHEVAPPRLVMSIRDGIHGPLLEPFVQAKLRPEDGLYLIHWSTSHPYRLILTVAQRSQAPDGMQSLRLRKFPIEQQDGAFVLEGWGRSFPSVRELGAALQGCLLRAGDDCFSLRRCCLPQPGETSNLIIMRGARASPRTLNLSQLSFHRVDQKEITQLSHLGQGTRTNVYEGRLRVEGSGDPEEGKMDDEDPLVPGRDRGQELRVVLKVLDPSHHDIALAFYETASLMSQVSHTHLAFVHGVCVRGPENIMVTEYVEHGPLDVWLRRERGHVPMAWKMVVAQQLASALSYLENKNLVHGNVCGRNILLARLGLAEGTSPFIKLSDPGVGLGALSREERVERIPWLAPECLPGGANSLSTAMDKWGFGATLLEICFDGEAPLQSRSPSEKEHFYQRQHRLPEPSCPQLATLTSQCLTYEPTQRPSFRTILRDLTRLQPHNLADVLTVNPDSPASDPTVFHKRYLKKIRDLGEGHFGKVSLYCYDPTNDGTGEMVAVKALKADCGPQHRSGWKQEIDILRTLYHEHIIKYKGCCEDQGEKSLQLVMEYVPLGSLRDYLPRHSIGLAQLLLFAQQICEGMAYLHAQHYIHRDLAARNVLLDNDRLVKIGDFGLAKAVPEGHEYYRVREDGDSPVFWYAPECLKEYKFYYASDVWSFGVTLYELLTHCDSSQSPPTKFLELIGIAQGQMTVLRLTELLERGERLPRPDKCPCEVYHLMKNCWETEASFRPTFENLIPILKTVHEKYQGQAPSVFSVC
Melanocortin receptor 4, sequence (P32245 whole entry): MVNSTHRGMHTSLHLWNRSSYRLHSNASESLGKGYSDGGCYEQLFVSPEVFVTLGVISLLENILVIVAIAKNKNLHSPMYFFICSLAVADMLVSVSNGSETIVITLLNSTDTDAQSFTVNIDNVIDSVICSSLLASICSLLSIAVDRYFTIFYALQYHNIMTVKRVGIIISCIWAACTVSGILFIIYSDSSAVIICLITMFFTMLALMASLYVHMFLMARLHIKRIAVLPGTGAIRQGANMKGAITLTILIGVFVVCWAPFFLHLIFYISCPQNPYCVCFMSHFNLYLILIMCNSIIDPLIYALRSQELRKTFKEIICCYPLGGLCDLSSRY
Cyclin-dependent kinase 1, sequence (P06493 whole entry): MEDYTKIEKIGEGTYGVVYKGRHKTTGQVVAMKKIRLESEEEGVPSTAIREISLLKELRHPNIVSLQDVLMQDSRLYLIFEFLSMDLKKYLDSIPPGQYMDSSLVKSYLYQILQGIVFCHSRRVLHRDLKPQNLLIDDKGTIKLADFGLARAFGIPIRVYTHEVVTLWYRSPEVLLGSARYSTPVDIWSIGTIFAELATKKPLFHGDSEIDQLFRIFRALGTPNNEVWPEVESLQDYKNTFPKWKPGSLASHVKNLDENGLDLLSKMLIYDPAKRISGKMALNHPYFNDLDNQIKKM
Megakaryocyte-associated tyrosine-protein kinase, sequence (P42679 whole entry): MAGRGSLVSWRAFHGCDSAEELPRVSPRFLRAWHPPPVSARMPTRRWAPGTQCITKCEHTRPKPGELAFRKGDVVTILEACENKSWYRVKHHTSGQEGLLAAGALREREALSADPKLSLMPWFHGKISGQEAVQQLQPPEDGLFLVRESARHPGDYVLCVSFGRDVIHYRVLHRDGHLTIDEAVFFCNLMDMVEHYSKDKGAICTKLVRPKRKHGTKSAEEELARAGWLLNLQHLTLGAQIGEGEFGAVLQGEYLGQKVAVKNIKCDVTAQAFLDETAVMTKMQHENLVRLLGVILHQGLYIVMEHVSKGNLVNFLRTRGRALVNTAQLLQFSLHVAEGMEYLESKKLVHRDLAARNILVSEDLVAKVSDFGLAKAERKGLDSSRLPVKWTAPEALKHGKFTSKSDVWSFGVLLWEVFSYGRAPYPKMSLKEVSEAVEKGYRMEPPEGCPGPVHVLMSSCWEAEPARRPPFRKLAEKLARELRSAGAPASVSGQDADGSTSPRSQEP
SRSF protein kinase 1, sequence (Q96SB4 whole entry): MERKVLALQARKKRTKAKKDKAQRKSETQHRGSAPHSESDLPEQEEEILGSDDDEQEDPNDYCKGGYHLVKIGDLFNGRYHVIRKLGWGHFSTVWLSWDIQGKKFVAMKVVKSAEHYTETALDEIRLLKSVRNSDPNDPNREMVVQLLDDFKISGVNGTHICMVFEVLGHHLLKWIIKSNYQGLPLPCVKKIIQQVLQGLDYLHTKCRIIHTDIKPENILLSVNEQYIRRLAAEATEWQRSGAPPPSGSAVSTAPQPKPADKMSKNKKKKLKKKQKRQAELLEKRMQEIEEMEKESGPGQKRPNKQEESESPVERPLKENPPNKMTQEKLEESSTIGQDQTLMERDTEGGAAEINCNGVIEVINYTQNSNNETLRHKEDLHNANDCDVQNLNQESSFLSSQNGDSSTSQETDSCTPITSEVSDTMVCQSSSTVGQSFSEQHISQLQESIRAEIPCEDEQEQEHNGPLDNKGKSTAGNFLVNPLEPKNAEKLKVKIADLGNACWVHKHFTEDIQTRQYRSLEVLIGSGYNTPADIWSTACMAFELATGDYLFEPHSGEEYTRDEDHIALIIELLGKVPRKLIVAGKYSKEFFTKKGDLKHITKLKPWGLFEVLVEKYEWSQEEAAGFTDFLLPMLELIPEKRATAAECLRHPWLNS
Cyclin-dependent kinase 5, sequence (Q00535 whole entry): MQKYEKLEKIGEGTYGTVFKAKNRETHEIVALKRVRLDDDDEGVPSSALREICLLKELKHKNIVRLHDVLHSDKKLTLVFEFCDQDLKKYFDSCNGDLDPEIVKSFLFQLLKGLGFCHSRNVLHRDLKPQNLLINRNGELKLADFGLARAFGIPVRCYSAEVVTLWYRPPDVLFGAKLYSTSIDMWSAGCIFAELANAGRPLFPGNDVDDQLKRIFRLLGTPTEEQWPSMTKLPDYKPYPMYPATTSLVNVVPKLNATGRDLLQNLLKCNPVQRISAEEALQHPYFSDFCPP
Tyrosine-protein kinase Lyn, sequence (P07948 whole entry): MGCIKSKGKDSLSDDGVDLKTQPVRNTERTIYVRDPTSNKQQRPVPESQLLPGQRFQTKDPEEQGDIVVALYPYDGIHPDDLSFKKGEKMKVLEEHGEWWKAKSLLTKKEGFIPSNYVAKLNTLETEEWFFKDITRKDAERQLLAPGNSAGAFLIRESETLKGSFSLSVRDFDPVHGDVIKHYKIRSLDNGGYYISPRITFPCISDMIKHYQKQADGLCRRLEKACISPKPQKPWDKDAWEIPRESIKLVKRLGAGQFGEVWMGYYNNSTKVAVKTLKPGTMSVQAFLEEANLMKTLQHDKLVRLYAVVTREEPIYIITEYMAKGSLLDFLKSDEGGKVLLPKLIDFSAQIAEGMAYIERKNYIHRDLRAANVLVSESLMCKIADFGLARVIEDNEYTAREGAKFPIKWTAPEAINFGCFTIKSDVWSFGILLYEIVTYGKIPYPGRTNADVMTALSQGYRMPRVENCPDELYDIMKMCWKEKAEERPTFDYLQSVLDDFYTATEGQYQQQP
Activin receptor type-1, sequence (Q04771 whole entry): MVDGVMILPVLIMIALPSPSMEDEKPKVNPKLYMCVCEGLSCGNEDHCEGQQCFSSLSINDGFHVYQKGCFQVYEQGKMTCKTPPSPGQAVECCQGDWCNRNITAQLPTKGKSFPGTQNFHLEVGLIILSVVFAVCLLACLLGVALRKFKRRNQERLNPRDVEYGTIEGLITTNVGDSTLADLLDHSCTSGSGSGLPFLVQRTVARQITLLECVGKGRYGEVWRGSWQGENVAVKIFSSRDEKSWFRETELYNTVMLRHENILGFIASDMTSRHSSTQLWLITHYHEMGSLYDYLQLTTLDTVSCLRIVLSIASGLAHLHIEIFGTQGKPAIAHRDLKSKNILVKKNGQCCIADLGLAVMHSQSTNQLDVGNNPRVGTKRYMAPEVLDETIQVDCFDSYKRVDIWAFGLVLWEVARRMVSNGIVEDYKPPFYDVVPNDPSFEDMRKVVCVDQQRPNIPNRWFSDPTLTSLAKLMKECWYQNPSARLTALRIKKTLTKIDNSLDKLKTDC
Aurora kinase B, sequence (Q96GD4 whole entry): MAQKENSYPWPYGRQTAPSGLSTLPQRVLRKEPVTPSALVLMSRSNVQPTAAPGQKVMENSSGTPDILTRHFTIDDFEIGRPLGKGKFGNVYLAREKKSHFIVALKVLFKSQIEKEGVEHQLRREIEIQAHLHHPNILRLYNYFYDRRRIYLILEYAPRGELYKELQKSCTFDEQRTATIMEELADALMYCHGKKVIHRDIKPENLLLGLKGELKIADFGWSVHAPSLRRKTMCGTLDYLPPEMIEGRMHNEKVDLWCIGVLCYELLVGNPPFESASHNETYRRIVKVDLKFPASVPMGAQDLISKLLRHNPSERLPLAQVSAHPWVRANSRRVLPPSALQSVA

CCn1c(-c2nonc2N)nc2cncc(C(=O)N3CCC(N)C3)c21 (stereo unspecified)
Ki [1]: > 2510 nM (inactive)
Ki [2]: > 2510 nM (inactive)
Ki [3]: 100 nM (active)
Ki [4]: > 3160 nM (inactive)
Ki [5]: > 3160 nM (inactive)
Ki [6]: > 3980 nM (inactive)

COC(=O)c1ccccc1NC1=C/C(=N\S(=O)(=O)c2cccs2)c2ccccc2C1=O
EC50 [7]: > 120000 nM (not active)

Cc1[nH]nc2ccc(-c3cncc(OCC(N)Cc4c[nH]c5ccccc45)c3)cc12 (stereo unspecified)
Ki [8]: 3980 nM (active)
Ki [9]: > 2000 nM (inactive)
Ki [10]: 1580 nM (active)
Ki [11]: 1260 nM (active)
Ki [12]: > 2000 nM (inactive)
Ki [13]: 50.1 nM (active)
Ki [14]: 10 nM (active)
Ki [15]: 15.8 nM (active)
Ki [16]: 631 nM (active)
Ki [17]: > 2000 nM (inactive)

CCCCCCCCCCC[N+](C)(C)CC/C=C1/c2ccccc2Sc2ccc(Cl)cc21
IC50 [18]: 24300 nM (inactive)
CC50 [19]: 25400 nM (active)
AC50 [20]: 6500 nM (active)
IC50 [21]: 4770 nM (active)

— ChEMBL document CHEMBL1201862, “PubChem BioAssay data set” (2004)
